The text below walks through data of US9695481B2, “Polynucleotides comprising a reporter sequence operatively linked to a regulatory element” (UNIVERSITEIT LEIDEN, priority 2010, dated 2017).

Data set [1] concerns ATM and ATR signaling pathways (phospho-Kap1, phospho-Chk1, phospho-p53). It is filed as cell-based, mouse. To be noted: Western blot, 24 h. As to the method:
Mouse ES cells were propagated on irradiated primary mouse embryonic fibroblasts as feeders according to established protocols. […] For analysis of compounds that require metabolic activation, cells were exposed for 3 h in the presence of 1% S9 rat liver extract in 3.2 mM KCl, 0.8 mM MgCl2, 0.5 mM glucose-6-phosphate and 0.4 mM NADP.
Activation of the ATM and ATR signaling pathways in response to CisPt and Aph was determined by Western blot analysis. […] Proteins were transferred to PVDF membrane (Millipore) and detected using antibodies against phospho-Kap1 (Bethyl laboratories), phospho-Chk1 (Bethyl laboratories), phospho-p53 (Cell signaling) or Hprt (Santa Cruz) as protein loading control. Proteins were visualized using enhanced chemoluminescence (ECL).
Background: In western blotting, separated proteins are transferred to a membrane and probed.

In data set [2] the test system is Bscl2-GFP mES reporter cells. Briefly: Bscl2-GFP genotoxicity reporter. The settings on record: 10 uM CisPt or 1.5 uM Aph, 24 h, flow cytometry. In general terms: A flow cytometer gives signals particle by particle.
For data set [3], the system named is Bscl2-GFP and Srxn1-GFP mES reporter cells.
Data set [4] relates to Bscl2-GFP mES reporter cells.
Data set [5] deals with Srxn1-GFP mES reporter cells.

`O=c1cc(-c2cccc3c2Sc2ccccc2S3)oc(N2CCOCC2)c1` [ku55933]: the “effect on phosphorylation of Kap1, Chk1 and p53 in response to CisPt and Aph” value in data set [1] is “prevented phosphorylation of Kap1 and p53”. Moreover, in data set [2], the “effect on Bscl2-GFP reporter activation by CisPt or Aph” value is recorded as “unaffected”.
Turning to `O=S(=O)([O-])[O-].[Cu+2]` [Copper sulfate], in data set [3], the “Bscl2-GFP/Srxn1-GFP GFP Induction” value is recorded as “Pos. (key: Pos.: considered positive when exposure to at least two different concentrations of a compound resulted in >1.5 fold induction of GFP expression)”; the “Bscl2-GFP/Srxn1-GFP Prim. toxic properties” value is reported as “Pro-oxidant”; the “GFP expression in Srxn1, Bscl2 and Btg2 GFP reporter cell lines” value is recorded as “increased”. Moreover, the Bscl2-GFP reporter induction result in data set [4] is on record as “not induced”. For the same compound, the Srxn1-GFP reporter induction result in data set [5] was “strong, concentration-dependent increase in expression of the GFP reporter”.
Take `NC(=O)NO` [HU, Hydroxyurea]: in data set [4], the Bscl2-GFP reporter induction entry is on record as “significant induction of GFP expression”. In addition, in data set [5], the Srxn1-GFP reporter induction entry is on record as “slight reporter activation”.
For `COc1cc2c(c(OC)c1OC)-c1c(cc3c(c1OC)OCO3)CC(C)C(C)C2` (stereo not shown) [schisandrin B], the “effect on phosphorylation of Kap1, Chk1 and p53 in response to CisPt and Aph” value in data set [1] was “diminished Chk1 and p53 phosphorylation”. The “effect on Bscl2-GFP reporter activation by CisPt or Aph” value in data set [2] is recorded as “almost completely be repressed”.
`O=P1(N(CCCl)CCCl)NCCCO1` (stereo not shown) [cyclophosphamide]: the “survival of Bscl2-GFP reporter cells after S9-dependent activation” value in data set [4] is “reduced survival”. Moreover, the “Bscl2-GFP reporter induction with metabolic activation” value in data set [4] (mouse) is recorded as “induced expression of the Bscl2-GFP reporter only when incubated in the presence of rat S9 mix”.
